Counter-ions that a name gives are not always drawn.
Assays:
[1] = Pharmacokinetics after oral capsule administration in male beagle dogs pre-treated with pentagastrin or famotidine; assay type: in vivo
Protocol: The substances were filled into Empty HPMC Capsules after correcting for potency and administered to dogs pre-treated with either pentagastrin or famotidine along with 40 mL of water. Pentagastrin enhances gastric secretions whereas famotidine neutralizes gastric sections. Therefore, pentagastrin and famotidine pre-treatments were used to simulate the impact of gastric pH on bioavailability and reduce the variability in gastric pH between dogs.
Plasma samples were collected at pre-defined intervals and analyzed for the concentration of Compound 1. The plasma concentration versus time data was analyzed by non-compartmental approaches using Win Nonlin software program to estimate PK parameters such as Cmax, Tmax, AUC0-t and AUC0-inf.

[2] = Excipient compatibility (binary mixtures, total impurity by HPLC); assay type: physicochemical
Text: Binary mixtures of samples were created by mixing the substance and the excipients (1:10 Compound to Excipients for fillers and 1:1 for all other excipients) using a mortar and pestle and the resultant mixture was accurately weighed and transferred into sample vials. The excipients used were as follows: colloidal silicon dioxide 200, croscarmellose sodium, crospovidone XL-10, dibasic calcium phosphate (an), hydroxypropyl cellulose, lactose monohydrate, magnesium stearate, mannitol 100SD, MCC PH102, Opadry™ II, povidone K-30, pregelatinized starch 1500, sodium starch glycolate, and sodium stearyl fumarate. The sample vials were set down at 40° C./75% RH condition for 8 weeks in open condition before analyzing their impurity levels using HPLC.

[3] = Intrinsic dissolution rate and drug in capsule dissolution in FaSSGF and FaSSIF; assay type: physicochemical
Protocol: The IDR rate was calculated using the slope of the linear curve divided by the surface area of tablet (0.5 cm^2). […] 0.6 mL liquid was removed with a syringe at each time point and filtered. The concentration of filtrates was analyzed by HPLC.

[4] = Dynamic vapor sorption (DVS) hygroscopicity; assay type: physicochemical; conditions: for form change after DVS evaluation: sample after DVS
Protocol: The hygroscopicity of HCl Form A was also evaluated by conducting dynamic vapor sorption experiments.
The hygroscopicity of HCl Form B was also evaluated by conducting dynamic vapor sorption experiments.
The hygroscopicity of HCl Form E was also evaluated by conducting dynamic vapor sorption experiments.

[5] = Manufacturability and physical stability (compressibility, tabletability, compatibility, XRD after compaction); assay type: physicochemical
Protocol: The XRD patterns were compared with the uncompressed compound. X-ray powder diffractograms were obtained on a wide-angle X-ray diffraction instrument (X'Pert Pro; PANalytical Inc., West Borough, MA) using Cu Ká radiation. The voltage and current applied were 45 kV and 40 mA, respectively. Each measurement was performed with a step size of 0.0167° in the 2-theta range of 5-35° and a dwell time of 0.4 s.

[6] = Competitive slurry experiments (relative stability of crystal forms); assay type: physicochemical
Text: Pattern A was observed under certain conditions during competitive slurry experiments. Pattern A was confirmed to be racemate by chiral HPLC analysis.

[7] = 25° C. between 10% relative humidity and 90% relative humidity, hydrochloride salt

Cn1ncc(-c2ccc3c(=O)[nH]nc(CN)c3c2)c1-c1c(F)c(Cl)cc(OC2CC2)c1C#N [Free Base Form A, 2-(4-(4-(aminomethyl)-1-oxo-1,2-dihydrophthalazin-6-yl)-1-methyl-1H-pyrazol-5-yl)-4-chloro-6-cyclopropoxy-3-fluorobenzonitrile]
exposure ([1]; oral 100 mg/dog, when the particle size was normalized): equivalent exposure to HCl salt
compatibility with excipients (total impurity content) ([2]; binary mixtures, 40° C./75% RH, 8 weeks, open condition, HPLC): good compatibility with excipients
sensitivity to individual excipients ([2]; colloidal silicon dioxide and lactose monohydrate, 40° C./75% RH, 8 weeks, open): more sensitive to colloidal silicon dioxide and lactose monohydrate than HCl Form B
risk of chemical stability ([2]; with excipients, manageable by choice of excipients): slightly higher
dissolution in gastric media ([3]; 37° C., 50 rpm, USP Type II): faster dissolution in gastric media
super saturation in intestinal fluid ([3]; pH shifted from gastric to intestinal after 30 minutes): able to maintain super saturation in intestinal fluid

Cn1ncc(-c2ccc3c(=O)[nH]nc(CN)c3c2)c1-c1c(F)c(Cl)cc(OC2CC2)c1C#N [HCl Form A, 2-(4-(4-(aminomethyl)-1-oxo-1,2-dihydrophthalazin-6-yl)-1-methyl-1H-pyrazol-5-yl)-4-chloro-6-cyclopropoxy-3-fluorobenzonitrile hydrochloride salt]
water uptake (DVS isotherm) [4, 7]: approximately 1.43%
Hygroscopicity (25° C./80% RH), class in words [4]: slightly
Hygroscopicity (25° C./80% RH) ([4]; hydrochloride salt): 1.43%
form change after DVS evaluation [4]: No form change was observed
stability relative to the other HCl form ([1]; conclusion drawn from the dog study results): less stable than HCl Form B

Cn1ncc(-c2ccc3c(=O)[nH]nc(CN)c3c2)c1-c1c(F)c(Cl)cc(OC2CC2)c1C#N [HCl Form B, 2-(4-(4-(aminomethyl)-1-oxo-1,2-dihydrophthalazin-6-yl)-1-methyl-1H-pyrazol-5-yl)-4-chloro-6-cyclopropoxy-3-fluorobenzonitrile hydrochloride salt]
water uptake (DVS isotherm) [4, 7]: approximately 1.3%
Hygroscopicity (25° C./80% RH), class in words [4]: slightly
Hygroscopicity (25° C./80% RH) ([4]; hydrochloride salt): 1.3%
form change after DVS evaluation [4]: No form change was observed
compatibility (tensile strength vs porosity) ([5]; at high pressures): good
compressibility (porosity vs compaction pressure) ([5]; at high pressures): good
tabletability (tensile strength vs compaction pressure) ([5]; at high pressures): good
phase stability by XRD after compression ([5]; high compaction pressure (300 MPa)): loss of crystallinity was observed
dissolution rate in intestinal media ([3]; 37° C., 50 rpm, USP Type II): slightly faster dissolution rate than Free Base Form A
dissolution in gastric media ([3]; 37° C., 50 rpm, USP Type II, hydrochloride salt): common ion effect slowing dissolution

Cn1ncc(-c2ccc3c(=O)[nH]nc(CN)c3c2)c1-c1c(F)c(Cl)cc(OC2CC2)c1C#N [HCl Form E, 2-(4-(4-(aminomethyl)-1-oxo-1,2-dihydrophthalazin-6-yl)-1-methyl-1H-pyrazol-5-yl)-4-chloro-6-cyclopropoxy-3-fluorobenzonitrile hydrochloride salt]
water uptake (DVS isotherm) ([4]; 25° C. between 0% relative humidity and 80% relative humidity): approximately 2.56%
Hygroscopicity (25° C./80% RH), class in words [4]: slightly
Hygroscopicity (25° C./80% RH) ([4]; hydrochloride salt): 2.56%
form change after DVS evaluation [4]: No form change was observed
Crystal Form ([6]; H2O (starting with Type E only) at 25° C., 4 d): Form B
Crystal Form ([6]; H2O (starting with Type E only) at 25° C., 8 d): Form B

Cn1ncc(-c2ccc3c(=O)[nH]nc(CN)c3c2)c1-c1c(F)c(Cl)cc(OC2CC2)c1C#N [HCl salt, 2-(4-(4-(aminomethyl)-1-oxo-1,2-dihydrophthalazin-6-yl)-1-methyl-1H-pyrazol-5-yl)-4-chloro-6-cyclopropoxy-3-fluorobenzonitrile hydrochloride salt]
variability of plasma exposure ([1]; pentagastrin-treated dogs, oral 100 mg/dog, ascribed to common ion effect in the gastric media): high variability

Cn1ncc(-c2ccc3c(=O)[nH]nc(CN)c3c2)c1-c1c(F)c(Cl)cc(OC2CC2)c1C#N [amorphous HCl salt, 2-(4-(4-(aminomethyl)-1-oxo-1,2-dihydrophthalazin-6-yl)-1-methyl-1H-pyrazol-5-yl)-4-chloro-6-cyclopropoxy-3-fluorobenzonitrile]
Crystal Form ([6]; EtOH/H2O (40:60 v/v) at 25° C., 1d (a clear solution was obtained before precipitation)): Pattern A

From patent US20260234128A1, “CRYSTALLINE FORMS OF 2-(4-(4-(AMINOMETHYL)-1-OXO-1,2- DIHYDROPHTHALAZIN-6-YL)-1-METHYL-1H- PYRAZOL-5-YL)-4-CHLORO-6-CYCLOPROPOXY-3-FLUOROBENZONITRILE” (MIRATI THERAPEUTICS, INC., priority 2023, published 2026)
